Measurements taken from patent US20100240611A1, “METHODS FOR PREPARING DPP-IV INHIBITOR COMPOUNDS” (priority 2009, published 2010).

Target: T1, DPP-IV (Homo sapiens, UniProt P27487)
T1 construct: in an in vivo protocol study in humans; from tissue; host or cells: human subjects (in vivo)
Experiment: in vivo protocol study in humans: selectivity of DPP-IV inhibition over other dipeptidyl peptidases
Conditions: other dipeptidyl peptidases named in the block: DPP-VII, DPP-VIII, DPP-IX, FAP

T1 sequence (P27487 whole entry): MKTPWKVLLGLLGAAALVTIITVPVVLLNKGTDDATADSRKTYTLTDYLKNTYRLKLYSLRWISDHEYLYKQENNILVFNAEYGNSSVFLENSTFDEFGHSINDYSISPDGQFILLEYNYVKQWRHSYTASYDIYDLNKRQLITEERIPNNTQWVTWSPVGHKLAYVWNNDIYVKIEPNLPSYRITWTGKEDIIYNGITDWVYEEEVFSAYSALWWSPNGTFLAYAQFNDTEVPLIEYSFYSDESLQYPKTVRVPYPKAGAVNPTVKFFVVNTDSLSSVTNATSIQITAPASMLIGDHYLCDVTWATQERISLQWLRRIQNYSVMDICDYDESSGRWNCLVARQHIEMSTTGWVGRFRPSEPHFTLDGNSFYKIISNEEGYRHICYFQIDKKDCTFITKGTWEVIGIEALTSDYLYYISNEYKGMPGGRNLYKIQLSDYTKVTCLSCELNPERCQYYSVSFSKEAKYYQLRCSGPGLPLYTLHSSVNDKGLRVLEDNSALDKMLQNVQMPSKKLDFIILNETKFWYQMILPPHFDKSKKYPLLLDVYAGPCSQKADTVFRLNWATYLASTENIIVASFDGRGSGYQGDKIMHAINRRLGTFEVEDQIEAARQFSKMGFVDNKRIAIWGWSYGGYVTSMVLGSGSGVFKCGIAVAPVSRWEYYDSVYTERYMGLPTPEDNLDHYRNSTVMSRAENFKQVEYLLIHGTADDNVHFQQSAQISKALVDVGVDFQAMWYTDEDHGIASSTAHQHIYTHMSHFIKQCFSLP

Compound: O=C(CN[C@@H]1CCNC1)N1CCC[C@H]1B(O)O [compound of formula (I), dutogliptin]
- selectivity for inhibition of DPP-IV over the other amino dipeptidyl peptidases: maintained selectivity for inhibition of DPP-IV over the other amino dipeptidyl peptidases
